Molecular target: human P2X7 (Homo sapiens (Human), UniProt Q99572)
Assay: Human P2X7 functional assay (Ca2+ influx, Fluo-4, FDSS)
Format: cell-based
Conditions: antagonistic activity with respect to the human P2X7 receptor; BzATP final concentration 80 microM
Protocol: The ability of the 5,6,7,8-tetrahydroquinoline and 6,7-dihydro-5H-cyclopenta[b]pyridine derivatives of the formula (I) to inhibit the P2X7 channel was measured by Ca^2+ influx assay and electrophysiology assay described below.
Human P2X7 Functional Assay
The functional activity of compounds was determined by measuring changes in intracellular calcium concentration using a Ca^2+-sensitive fluorescent dye, Fluo-4 (Molecular Probes). The changes in fluorescent signal were monitored by the cell imaging technology by Hamamatsu Photonics's Functional Drug Screening System (FDSS). Increases in intracellular Ca^2+ concentration were readily detected upon activation with BzATP.
HEK293 cells stably expressing human P2X7 (GenBank accession number BC011913) carrying a C-terminal FLAG tag were grown in T225 flasks, in a 5% CO2 humidified incubator to about 80% confluence. Media composition consisted of Dulbecco's Modified Eagle Medium (high glucose), 10% fetal bovine serum ([…]), 100 units/[…] Penicillin, 100 microg/mL Streptomycin and 250 microg/mL Geneticine.
1. Plate-out HEK293-human P2X7 cells (40 microL medium containing 10,000 cells per well) into poly-D-lysine coated 384-well plates (Corning) at 24 h prior to assay.
2. Incubate at 37° C. in 5% CO2.
3. Incubate the plate at 37° C. in 5% CO2 for 1 h.
5. Test compounds were prepared at 100× the test concentration in DMSO by serial dilution with Biomek-FX liquid handling instrument. 33× diluted compound solutions in assay buffer were prepared in intermediate compound plate with Biomek-NX liquid handling instrument. A further 3× dilution occurred in below steps 6 and 7.
6. Add 20 microL of 33× diluted compound solutions into each well and leave the plate for 10 min under the dark at room temperature.
7. Measure activity by FDSS as follows: • Set the assay plate on the stacker of FDSS. • Start the detection of fluorescence intensity at 540 nm by 480 nm exicitation. • After 30 seconds, add 20 microL of assay buffer containing 240 microM BzATP (final concentration 80 microM).
IC50 values for compounds of the present invention were determined from 7-point dose-response studies. Curves were generated using the average of duplicate wells for each data point. Finally, the IC50 values are calculated with the best-fit dose curve determined by XLfit (ID Business Solutions Ltd.).

Chain of human P2X7 (Q99572 whole entry): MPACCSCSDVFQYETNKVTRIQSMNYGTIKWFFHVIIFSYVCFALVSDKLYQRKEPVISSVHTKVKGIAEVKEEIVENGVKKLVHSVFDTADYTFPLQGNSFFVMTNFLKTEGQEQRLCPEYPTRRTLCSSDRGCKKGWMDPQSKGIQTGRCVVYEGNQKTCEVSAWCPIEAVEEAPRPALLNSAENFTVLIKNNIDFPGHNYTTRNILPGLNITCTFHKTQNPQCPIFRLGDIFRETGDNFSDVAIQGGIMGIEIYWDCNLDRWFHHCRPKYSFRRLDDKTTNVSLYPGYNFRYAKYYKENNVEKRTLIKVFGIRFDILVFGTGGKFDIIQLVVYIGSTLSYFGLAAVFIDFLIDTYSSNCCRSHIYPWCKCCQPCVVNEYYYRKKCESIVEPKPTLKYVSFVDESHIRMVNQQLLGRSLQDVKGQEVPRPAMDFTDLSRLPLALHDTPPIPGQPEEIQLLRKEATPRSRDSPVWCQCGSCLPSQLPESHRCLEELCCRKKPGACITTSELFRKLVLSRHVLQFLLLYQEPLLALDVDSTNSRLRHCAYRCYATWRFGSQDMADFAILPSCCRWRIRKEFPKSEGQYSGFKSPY

SMILES | IC50
O=C(NCC(c1ccccc1)N1CCOCC1)[C@]1(F)CC[C@H](O)c2ncccc21 (mixture of isomers) [Example 235, (5S,8S)-5-fluoro-8-hydroxy-N-((rac)-2-morpholino-2-phenylethyl)-5,6,7,8-tetrahydroquinoline-5-carboxamide] | 1000 to 3000 nM
O=C1CCC(C(=O)NCc2c(Cl)cc(Cl)cc2CO)c2cccnc21 (stereo not shown) [Example 4, N-(2,4-dichloro-6-(hydroxy-methyl)benzyl)-8-oxo-5,6,7,8-tetrahydroquinoline-5-carboxamide] | < 50 nM
O=C1CCC(C(=O)NCC2CCCCCC2)c2cccnc21 (stereo not shown) [Example 5, N-(cycloheptylmethyl)-8-oxo-5,6,7,8-tetrahydro-quinoline-5-carboxamide] | 1000 to 3000 nM
Cc1cc(Cl)cc(Cl)c1CNC(=O)C1(O)CCC(=O)c2ncccc21 (stereo not shown) [Example 15, N-(2,4-dichloro-6-methylbenzyl)-5-hydroxy-8-oxo-5,6,7,8-tetrahydro-quinoline-5-carboxamide] | 301 to 1000 nM
O=C1CC(C(=O)NCc2cccc(C(F)(F)F)c2Cl)c2cccnc21 (stereo not shown) [Example 17, N-(2-chloro-3-(trifluoromethyl)benzyl)-7-oxo-6,7-dihydro-5H-cyclopenta[b] pyridine-5-carboxamide] | 50 to 100 nM
O=C(O)CC1CCC(C(=O)NCc2cccc(C(F)(F)F)c2Cl)c2cccnc21 (stereo not shown) [Example 31, 2-(5-((2-chloro-3-(trifluoro-methyl)benzyl)carbamoyl)-5,6,7,8-tetrahydroquinolin-8-yl)acetic acid] | 50 to 100 nM
O=C(NCc1ccc(F)c(F)c1F)[C@H]1CC[C@H](O)c2ncccc21 [Example 71, (5S,8S)-8-hydroxy-N-(2,3,4-trifluorobenzyl)-5,6,7,8-tetrahydroquinoline-5-carboxamide] | 301 to 1000 nM
O=C(NCc1ccc(F)cc1C(F)(F)F)[C@H]1CC[C@H](O)c2ncccc21 [Example 75, (5S,8S)-N-(4-fluoro-2-(tri-fluoromethyl)benzyl)-8-hydroxy-5,6,7,8-tetra-hydroquinoline-5-carbox-amide] | 1000 to 3000 nM
O=C(NCc1ccc(Br)cc1F)[C@H]1CC[C@H](O)c2ncccc21 [Example 79, (5S,8S)-N-(4-bromo-2-fluorobenzyl)-8-hydroxy-5,6,7,8-tetrahydroquinoline-5-carboxamide] | 301 to 1000 nM
O=C(NCc1cccc(C(F)(F)F)c1Cl)[C@H]1CC[C@H](O)c2ncccc21 [Example 86, (5S,8S)-N-(2-chloro-3-(trifluoromethyl)benzyl)-8-hydroxy-5,6,7,8-tetra-hydroxyqinoline-5-carboxamide] | 101 to 300 nM
O=C(NCc1cccc(C(F)(F)F)c1Cl)[C@@]1(F)CC[C@H](O)c2ncccc21 [Example 101, (5R,8S)-N-(2-chloro-3-(trifluoromethyl)benzyl)-5-fluoro-8-hydroxy-5,6,7,8-tetrahydroquinoline-5-carboxamide] | 101 to 300 nM
O=C(NCc1c(Cl)cc(Cl)cc1CO)[C@@]1(F)CC[C@H](O)c2ncccc21 [Example 103, (5R,8S)-N-(2,4-dichloro-6-hydroxymethylbenzyl)-5-fluoro-8-hydroxy-5,6,7,8-tetrahydroquinoline-5-carboxamide] | 101 to 300 nM

The remaining lines, values ahead:

IC50 | SMILES
< 50 nM | Cc1cc(Cl)cc(Cl)c1CNC(=O)C1CCC(CC(=O)O)c2ncccc21 (stereo not shown) [Example 30, 2-(5-((2,4-dichloro-6-methyl-benzyl)carbamoyl)-5,6,7,8-tetrahydroquinolin-8-yl) acetic acid]
101 to 300 nM | Cc1cc(Cl)cc(Cl)c1CNC(=O)[C@H]1CC[C@H](O)c2ncccc21 [Example 63, (5S,8S)-N-(2,4-dichloro-6-methylbenzyl)-8-hydroxy-5,6,7,8-tetrahydro-quinoline-5-carboxamide]
< 50 nM | Cc1cc(Cl)cc(Cl)c1CNC(=O)C1CC[C@H](O)c2ncccc21 (stereo partly drawn) [Example 64, (5R,8S)-N-(2,4-dichloro-6-methylbenzyl)-8-hydrdroxy-5,6,7,8-tetra-hydroxyquinoline-5-carboxamide]
301 to 1000 nM | O=C(NCc1ccc(Cl)cc1Cl)[C@H]1CC[C@H](O)c2ncccc21 [Example 65, (5S,8S)-N-(2,4-dichloro-benzyl)-8-hydroxy-5,6,7,8-tetrahydroquinoline-5-carboxamide]
301 to 1000 nM | O=C(NCc1c(F)cc(Cl)cc1Cl)[C@H]1CC[C@H](O)c2ncccc21 [Example 69, (5S,8S)-N-(2,4-dichloro-6-fluorobenzyl)-8-hy-droxy-5,6,7,8-tetrahydro-quinoline-5-carboxamide]
101 to 300 nM | O=C(NCc1c(F)cc(F)cc1F)[C@@H]1CC[C@H](O)c2ncccc21 [Example 73, (5R,8S)-8-hydroxy-N-(2,4,6-trifluorobenzyl)-5,6,7,8-tetrahydroquinoline-5-carboxamide]
301 to 1000 nM | O=C(NCc1ccc(Cl)cc1F)[C@H]1CC[C@H](O)c2ncccc21 [Example 77, (5S,8S)-N-(4-chloro-2-fluorobenzyl)-8-hydroxy-5,6,7,8-tetrahydroquinoline-5-carboxamide]
101 to 300 nM | O=C(NCc1ccc(F)cc1Cl)[C@H]1CC[C@@H](O)c2ncccc21 [Example 90, (5S,8R)-N-(2-chloro-4-fluorobenzyl)-8-hydroxy-5,6,7,8-tetrahydroquinoline-5-carboxamide]
101 to 300 nM | O=C(NCc1c(F)cc(Cl)cc1Cl)[C@@H]1CC[C@@H](O)c2ncccc21 [Example 91, (5R,8R)-N-(2,4-dichloro-6-fluorobenzyl)-8-hy-droxy-5,6,7,8-tetrahydro-quinoline-5-carboxamide]
101 to 300 nM | O=C(NCc1c(F)cc(Cl)cc1Cl)[C@H]1CC[C@@H](O)c2ncccc21 [Example 92, (5S,8R)-N-(2,4-dichloro-6-fluorobneyzl)-8-hy-droxy-5,6,7,8-tetrahydro-quinoline-5-carboxamide]
1000 to 3000 nM | O=C(NCc1ccc(F)c(F)c1F)[C@@H]1CC[C@@H](O)c2ncccc21 [Example 93, (5R,8R)-8-hydroxy-N-(2,3,4-trifluorobenzyl)-5,6,7,8-tetrahydroquinoline-5-carboxamide]
1000 to 3000 nM | O=C(NCc1ccc(F)c(F)c1F)[C@H]1CC[C@@H](O)c2ncccc21 [Example 94, (5S,8R)-8-hydroxy-N-(2,3,4-trifluorobenzyl)-5,6,7,8-tetrahydroquinoline-5-carboxamide]
1000 to 3000 nM | O=C(NCc1ccc(Cl)cc1F)[C@@H]1CC[C@@H](O)c2ncccc21 [Example 95, (5R,8R)-N-(4-chloro-2-fluorobenzyl)-8-hydroxy-5,6,7,8-tetrahydroquinoline-5-carboxamide]
1000 to 3000 nM | O=C(NCc1ccc(Cl)cc1F)[C@H]1CC[C@@H](O)c2ncccc21 [Example 96, (5S,8R)-N-(4-chloro-2-fluorobenzyl)-8-hydroxy-5,6,7,8-tetrahydroquinoline-5-carboxamide]
101 to 300 nM | Cc1cc(Cl)cc(Cl)c1CNC(=O)[C@H]1C[C@@H](O)c2ncccc21 [Example 98, (5S,7R)-N-(2,4-dichloro-6-methylbenzyl)-7-hy-droxy-6,7-dihydro-5H-cyclopenta[b]pyridin-5-carboxamide]
< 50 nM | Cc1cc(Cl)cc(Cl)c1CNC(=O)[C@@]1(F)CC[C@H](O)c2ncccc21 [Example 99, (5R,8S)-N-(2,4-dichloro-6-methylbenzyl)-5-fluoro-8-hydroxy-5,6,7,8-tetrahydroquinoline-5-carboxamide]

— US11077100B2, “Tetrahydroquinoline derivatives as P2X7 receptor antagonists” (RaQualia Pharma Inc., priority 2017, dated 2021)
